Source: patent publication US12139474B2, “LPA receptor antagonists and uses thereof” (Gilead Sciences, Inc., priority 2020, dated 2024)

What follows are molecules tested against T1, human LPAR1 (Homo sapiens, UniProt Q92633) (assay: LPAR1 intracellular calcium mobilization assay (antagonist mode)). Conditions: CHO-K1 EDG2 cells expressing human LPAR1; 60 min pre-incubation with compound, then LPA 18:2 at EC80 (100 nM); FLIPR calcium signal.
T1 construct: host or cells: CHO-K1
Format: cell-based
Protocol: In vitro LPAR1 activity was measured in an intracellular calcium mobilization assay.
CHO-K1 EDG2 cells (DiscoverX cat #93-0644C2) expressing human LPAR1 (NM_001401.3) were seeded in a total volume of 25 μL of Dulbecco's Modification of Eagle's Medium (DMEM) with 10% Fetal Bovine Serum, 1× PenStrepGlutamine, 300 ug/ml Hygromycin, and 800 ug/ml G418 into 384-well tissue culture plate (Grenier #781091) at 15,000 cells/well and incubated at 37° C. overnight. Prior to testing, 25 μL Calcium Loading Dye Component A (FLIPR Calcium 6 Assay Kit Molecular Device #R8190) and 2.5 mM Probenecid (Invitrogen #P36400, prepared fresh) in Hank's Balanced Salt Solution (Corning #21-023-CV), 20 mM HEPES (Corning #25-060-CI), 0.1% Bovine Serum Albumin (Sigma-Aldrich #A7906-500G) was add to the cells for 60 minutes at 37° C.
Agonist dose curves of LPA 18:2 (Avanti Polar Lipids cat #857138, 0.5 nM to 10 μM) were recorded to determine the LPA 18:2 EC80 for subsequent antagonist assays. For agonist dose curves, cells were removed from the incubator 2 hours after dye loading and transferred to the FLIPR Tetra instrument (Molecular Devices, San Jose, CA). Calcium mobilization was monitored for 5 min and 10 μL 6× LPA in HBSS/20 mM Hepes/0.1% bovine serum albumin (BSA) was added to the cells 5 seconds into the assay.
To determine the LPAR1 antagonist activity of test compounds, cells were pre-incubated with test compound at a dose range of 0.5 nM to 10 μM, followed by LPA at EC80 concentration (100 nM). After dye loading, cells were removed from the incubator and 0.3 μL of 200× antagonist was added. Cells were incubated for 60 minutes at 37° C. Antagonist activity was measured on a FLIPR Tetra. Calcium mobilization was monitored for 3.5 minutes and 10 μL 6× EC80 LPA in HBSS, 20 mM HEPES, and 0.1% BSA was added to the cells 5 seconds into the assay. Signal amplitude (Maximum minus minimum) values were plotted against log10 of antagonist concentration using Dose Response Tool (Gilead Sciences Inc.) to determine EC50.
To assess the antagonistic potential of exemplified compounds EC50 values were determined for Compounds 1 to 32 in the LPAR1 calcium mobilization assay. The compound numbers correspond to the compound numbers in Examples 1 to 33.

T1 sequence (Q92633 whole entry): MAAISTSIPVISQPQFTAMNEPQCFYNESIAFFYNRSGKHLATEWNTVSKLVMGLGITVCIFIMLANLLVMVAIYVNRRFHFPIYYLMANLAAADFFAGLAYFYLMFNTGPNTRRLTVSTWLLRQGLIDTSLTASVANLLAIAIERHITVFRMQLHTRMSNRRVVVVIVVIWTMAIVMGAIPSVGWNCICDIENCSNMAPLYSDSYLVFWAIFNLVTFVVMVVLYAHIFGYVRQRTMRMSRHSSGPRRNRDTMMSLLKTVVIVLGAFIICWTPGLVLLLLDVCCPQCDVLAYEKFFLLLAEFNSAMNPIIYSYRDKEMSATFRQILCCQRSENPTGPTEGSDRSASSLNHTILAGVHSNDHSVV

Structure (SMILES) | EC50
C[C@@H](OC(=O)Nc1c(-c2ccc3c(n2)OC(C(F)(F)F)C(=O)N3)nnn1C)c1cc(F)cnc1Cl (stereo partly drawn) [Compound 30, (R)-1-(2-chloro-5-fluoropyridin-3-yl)ethyl (1-methyl-4-(2-oxo-3-(trifluoromethyl)-2,3-dihydro-1H-pyrido[2,3-b][1,4]oxazin-6-yl)-1H-1,2,3-triazol-5-yl)carbamate] | < 5 nM
C[C@@H](OC(=O)Nc1c(-c2ccc3c(n2)COC(=O)N3)nnn1C)c1cccnc1Cl [Compound 25, [(1R)-1-(2-chloro-3-pyridyl)ethyl] N-[3-methyl-5-(2-oxo-1,4-dihydropyrido[3,2-d][1,3]oxazin-6-yl)triazol-4-yl]carbamate] | 140 nM
C[C@@H](OC(=O)Nc1c(-c2ccc3c(n2)OCC(=O)N3)nnn1C)c1cccnc1Cl [Compound 24, (R)-1-(2-chloropyridin-3-yl)ethyl (1-methyl-4-(2-oxo-2,3-dihydro-1H-pyrido[2,3-b][1,4]oxazin-6-yl)-1H-1,2,3-triazol-5-yl)carbamate] | 123 nM
CC(OC(=O)Nc1c(-c2ccc3c(n2)OCC(=O)N3)nnn1C)c1cc(F)ncc1F (stereo not shown) [Compound 2, 1-(2,5-difluoropyridin-4-yl)ethyl(1-methyl-4-(2-oxo-2,3-dihydro-1H-pyrido[2,3-b][1,4]-oxazin-6-yl)-1H-1,2,3-triazol-5-yl)carbamate] | 1980 nM
C[C@@H](OC(=O)Nc1c(-c2ccc3c(n2)OCC(=O)N3)nnn1C)c1cc(F)cnc1F [Compound 3, (R)-1-(2,5-difluoropyridin-3-yl)ethyl(1-methyl-4-(2-oxo-2,3-dihydro-1H-pyrido-[2,3-b][1,4]oxazin-6-yl)-1H-1,2,3-triazol-5-yl)carbamate] | 66 nM
CC1Oc2nc(-c3nnn(C)c3NC(=O)O[C@H](C)c3cccnc3Cl)ccc2NC1=O (stereo partly drawn) [Compound 22, (R)-1-(2-chloropyridin-3-yl)ethyl (1-methyl-4-(3-methyl-2-oxo-2,3-dihydro-1H-pyrido[2,3-b][1,4]oxazin-6-yl)-1H-1,2,3-triazol-5-yl)carbamate] | 86 nM
C[C@@H](OC(=O)Nc1c(-c2ccc3c(n2)OC(c2ccccc2)C(=O)N3)nnn1C)c1cccnc1Cl (stereo partly drawn) [Compound 27, (R)-1-(2-chloropyridin-3-yl)ethyl (1-methyl-4-(2-oxo-3-phenyl-2,3-dihydro-1H-pyrido[2,3-b][1,4]oxazin-6-yl)-1H-1,2,3-triazol-5-yl)carbamate] | 135 nM
CCC1Oc2nc(-c3nnn(C)c3NC(=O)O[C@H](C)c3cccnc3Cl)ccc2NC1=O (stereo partly drawn) [Compound 26, (R)-1-(2-chloropyridin-3-yl)ethyl (4-(3-ethyl-2-oxo-2,3-dihydro-1H-pyrido[2,3-b][1,4]oxazin-6-yl)-1-methyl-1H-1,2,3-triazol-5-yl)carbamate] | 3780 nM
C[C@@H](OC(=O)Nc1c(-c2ccc3c(n2)OCC(=O)N3)nnn1C)c1cc(Cl)cnc1F [Compound 4, (R)-1-(5-chloro-2-fluoropyridin-3-yl)-ethyl(1-methyl-4-(2-oxo-2,3-dihydro-1H-pyrido[2,3-b][1,4]-oxazin-6-yl)-1H-1,2,3-triazol-5-yl)-carbamate] | 118 nM
C[C@@H](OC(=O)Nc1c(-c2ccc3[nH]c(=O)ccc3c2)nnn1C)c1ccccc1Cl [Compound 15, (R)-1-(2-chlorophenyl)ethyl(1-methyl-4-(2-oxo-1,2-dihydroquinolin-6-yl)-1H-1,2,3-triazol-5-yl)carbamate] | 565 nM
C[C@@H](OC(=O)Nc1c(-c2ccc3c(c2)COC(=O)N3)nnn1C)c1ccccc1Cl [Compound 12, (R)-1-(2-chlorophenyl)ethyl(1-methyl-4-(2-oxo-1,4-dihydro-2H-benzo[d][1,3]-oxazin-6-yl)-1H-1,2,3-triazol-5-yl)-carbamate] | 218 nM
C[C@@H](OC(=O)Nc1c(-c2ccc3c(c2)OCC(=O)N3)nnn1C)c1ccccc1Cl [Compound 13, (R)-1-(2-chlorophenyl)ethyl(1-methyl-4-(3-oxo-3,4-dihydro-2H-benzo[b][1,4]-oxazin-7-yl)-1H-1,2,3-triazol-5-yl)-carbamate] | 38 nM
CC1Oc2nc(-c3nnn(C)c3NC(=O)O[C@H](C)c3cc(F)cnc3Cl)ccc2NC1=O (stereo partly drawn) [Compound 31, (R)-1-(2-chloro-5-fluoropyridin-3-yl)ethyl (1-methyl-4-(3-methyl-2-oxo-2,3-dihydro-1H-pyrido[2,3-b][1,4]oxazin-6-yl)-1H-1,2,3-triazol-5-yl)carbamate] | < 5 nM
C[C@@H](OC(=O)Nc1c(-c2ccc3c(n2)OCC(=O)N3)nnn1C)c1cc(F)cnc1Cl [Compound 1, (R)-1-(2-chloro-5-fluoropyridin-3-yl)ethyl (1-methyl-4-(2-oxo-2,3-dihydro-1H-pyrido[2,3-b][1,4]oxazin-6-yl)-1H-1,2,3-triazol-5-yl)carbamate] | 85 nM
C[C@@H](OC(=O)Nc1c(-c2cnc3c(c2)OCC(=O)N3)nnn1C)c1cccnc1Cl [Compound 8, (R)-1-(2-chloropyridin-3-yl)ethyl (1-methyl-4-(3-oxo-3,4-dihydro-2H-pyrido[3,2-b][1,4]oxazin-7-yl)-1H-1,2,3-triazol-5-yl)carbamate] | 765 nM
C[C@@H](OC(=O)Nc1c(-c2ccc3c(n2)OC(C)(C)C(=O)N3)nnn1C)c1cccnc1Cl [Compound 21, (R)-1-(2-chloropyridin-3-yl)ethyl (4-(3,3-dimethyl-2-oxo-2,3-dihydro-1H-pyrido[2,3-b][1,4]oxazin-6-yl)-1-methyl-1H-1,2,3-triazol-5-yl)carbamate] | 2280 nM
C[C@@H](OC(=O)Nc1c(-c2cc3c(cc2F)NC(=O)CC3)nnn1C)c1cccnc1Cl [Compound 6, [(1R)-1-(2-chloro-3-pyridyl)ethyl] N-[5-(7-fluoro-2-oxo-3,4-dihydro-1H-quinolin-6-yl)-3-methyl-triazol-4-yl]carbamate] | 115 nM
C[C@@H](OC(=O)Nc1c(-c2ccc3c(c2)CCC(=O)N3)nnn1C)c1cccnc1Cl [Compound 17, (R)-1-(2-chloropyridin-3-yl)ethyl (1-methyl-4-(2-oxo-1,2,3,4-tetrahydroquinolin-6-yl)-1H-1,2,3-triazol-5-yl)-carbamate] | 390 nM
C[C@@H](OC(=O)Nc1c(-c2ccc3c(c2)COC(=O)N3)nnn1C)c1cccnc1Cl [Compound 16, (R)-1-(2-chloropyridin-3-yl)ethyl (1-methyl-4-(2-oxo-1,4-dihydro-2H-benzo[d][1,3]-oxazin-6-yl)-1H-1,2,3-triazol-5-yl)-carbamate] | 525 nM
C[C@@H](OC(=O)Nc1c(-c2ccc3c(c2)N(C)CC(=O)N3)nnn1C)c1ccccc1Cl [Compound 19, (R)-1-(2-chlorophenyl)ethyl (1-methyl-4-(4-methyl-2-oxo-1,2,3,4-tetrahydroquinoxalin-6-yl)-1H-1,2,3-triazol-5-yl)carbamate] | 265 nM
C[C@@H](OC(=O)Nc1c(-c2ccc3c(c2)CCC(=O)N3)nnn1C)c1cc(F)cnc1Cl [Compound 20, (R)-1-(2-chloro-5-fluoropyridin-3-yl)ethyl (1-methyl-4-(2-oxo-1,2,3,4-tetrahydroquinolin-6-yl)-1H-1,2,3-triazol-5-yl)carbamate] | 118 nM
C[C@@H](OC(=O)Nc1c(-c2ccc3c(c2F)CCC(=O)N3)nnn1C)c1cccnc1Cl [Compound 7, (R)-1-(2-chloropyridin-3-yl)ethyl (4-(5-fluoro-2-oxo-1,2,3,4-tetrahydroquinolin-6-yl)-1-methyl-1H-1,2,3-triazol-5-yl)carbamate] | 1230 nM
C[C@@H](OC(=O)Nc1c(-c2ccc3c(c2)CC(=O)N3)nnn1C)c1ccccc1Cl [Compound 14, (R)-1-(2-chlorophenyl)ethyl(1-methyl-4-(2-oxoindolin-5-yl)-1H-1,2,3-triazol-5-yl)carbamate] | 4160 nM
C[C@@H](OC(=O)Nc1c(-c2ccc3c(c2)CCC(=O)N3)nnn1C)c1ccccc1Cl [Compound 11, (R)-1-(2-chlorophenyl)ethyl (1-methyl-4-(2-oxo-1,2,3,4-tetrahydroquinolin-6-yl)-1H-1,2,3-triazol-5-yl)carbamate] | 46 nM
C[C@@H](OC(=O)Nc1c(-c2nc3c(cc2F)NC(=O)CO3)nnn1C)c1cccnc1Cl [Compound 28, (R)-1-(2-chloropyridin-3-yl)ethyl (4-(7-fluoro-2-oxo-2,3-dihydro-1H-pyrido[2,3-b][1,4]oxazin-6-yl)-1-methyl-1H-1,2,3-triazol-5-yl)carbamate] | 660 nM
